Measurements: the supplement of paper PMC10307832

Key:
Assay in all cases: relative viability (nuclei count vs DMSO), 5 days (fraction); higher = more cells survive
BAM7 + Trametinib = compound: CCOC1=CC=CC=C1N=NC2=C(NN(C2=O)C3=NC(=CS3)C4=CC=CC=C4)C [BAM7] + CC(=O)Nc1cccc(-n2c(=O)n(C3CC3)c(=O)c3c(Nc4ccc(I)cc4F)n(C)c(=O)c(C)c32)c1 [Trametinib] (partner 0.02 µM)
Procedure, shortened: (§1)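 After 5 days of treatment, lung cancer cells in 1536-well plates were fixed and stained in a single step (final 0.05% Triton X-100, 1% formaldehyde, 1 ug/ml Hoechst) and their nuclei counted on 4× images. Treatment had been applied by pin tool the day after seeding as one drug alone or as a fixed anchor-drug dose with five library-drug doses (not always all listed) in √10 steps. Relative viability is the nuclei count of treated wells divided by that of vehicle wells, and values are medians of duplicate plates.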

BAM7 + Luminespib = compound: CCOC1=CC=CC=C1N=NC2=C(NN(C2=O)C3=NC(=CS3)C4=CC=CC=C4)C [BAM7] + CCNC(=O)c1noc(-c2cc(C(C)C)c(O)cc2O)c1-c1ccc(CN2CCOCC2)cc1 [Luminespib] (partner 0.01 µM)
Procedure, shortened: as §1

[1] = compound: CCn1c(-c2nonc2N)nc2c(C#CC(C)(C)O)ncc(OC[C@H]3CCCNC3)c21 + CS(=O)(=O)N1CCN(Cc2cc3nc(-c4cccc5[nH]ncc45)nc(N4CCOCC4)c3s2)CC1 [Pictilisib] (partner 1 µM)
Procedure, shortened: as §1

[2] = compound: CCn1c(-c2nonc2N)nc2c(C#CC(C)(C)O)ncc(OC[C@H]3CCCNC3)c21 + O=C(c1cc(Cc2n[nH]c(=O)c3ccccc23)ccc1F)N1CCN(C(=O)C2CC2)CC1 [Olaparib] (partner 8 µM)
Procedure, shortened: as §1

Cell Line: RERF-LC-KJ
- relative viability (BAM7 + Trametinib; first compound 0.5 µM): 0.767
- relative viability (BAM7 + Trametinib; first compound 5 µM): 0.708
- relative viability (BAM7 + Trametinib; first compound 15.81 µM): 0.526
- relative viability (BAM7 + Trametinib; first compound 50 µM): 0.642
- relative viability (BAM7 + Luminespib; first compound 0.5 µM): 1.19
- relative viability (BAM7 + Luminespib; first compound 5 µM): 0.93
- relative viability (BAM7 + Luminespib; first compound 15.81 µM): 0.726
- relative viability (BAM7 + Luminespib; first compound 50 µM): 0.759
- relative viability ([1]; first compound 0.01 µM): 0.578
- relative viability ([1]; first compound 0.03162 µM): 0.566
- relative viability ([1]; first compound 0.1 µM): 0.556
- relative viability ([1]; first compound 0.3162 µM): 0.567
- relative viability ([1]; first compound 1 µM): 0.535
- relative viability ([2]; first compound 0.01 µM): 1
- relative viability ([2]; first compound 0.03162 µM): 0.87
- relative viability ([2]; first compound 0.1 µM): 0.854
- relative viability ([2]; first compound 0.3162 µM): 0.854
- relative viability ([2]; first compound 1 µM): 0.797

Cell Line: SK-LU-1
- relative viability (BAM7 + Trametinib; first compound 0.5 µM): 0.575
- relative viability (BAM7 + Trametinib; first compound 5 µM): 0.525
- relative viability (BAM7 + Trametinib; first compound 15.81 µM): 0.527
- relative viability (BAM7 + Trametinib; first compound 50 µM): 0.499
- relative viability (BAM7 + Luminespib; first compound 0.5 µM): 0.217
- relative viability (BAM7 + Luminespib; first compound 5 µM): 0.18
- relative viability (BAM7 + Luminespib; first compound 15.81 µM): 0.2
- relative viability (BAM7 + Luminespib; first compound 50 µM): 0.186
- relative viability ([1]; first compound 0.01 µM): 0.64
- relative viability ([1]; first compound 0.03162 µM): 0.715
- relative viability ([1]; first compound 0.1 µM): 0.498
- relative viability ([1]; first compound 0.3162 µM): 0.575
- relative viability ([1]; first compound 1 µM): 0.617
- relative viability ([2]; first compound 0.01 µM): 0.49
- relative viability ([2]; first compound 0.03162 µM): 0.723
- relative viability ([2]; first compound 0.1 µM): 0.482
- relative viability ([2]; first compound 0.3162 µM): 0.43
- relative viability ([2]; first compound 1 µM): 0.461

Cell Line: SK-MES-1
- relative viability (BAM7 + Trametinib; first compound 0.5 µM): 0.566
- relative viability (BAM7 + Trametinib; first compound 5 µM): 0.551
- relative viability (BAM7 + Trametinib; first compound 15.81 µM): 0.523
- relative viability (BAM7 + Trametinib; first compound 50 µM): 0.495
- relative viability (BAM7 + Luminespib; first compound 0.5 µM): 0.877
- relative viability (BAM7 + Luminespib; first compound 5 µM): 0.805
- relative viability (BAM7 + Luminespib; first compound 15.81 µM): 0.621
- relative viability (BAM7 + Luminespib; first compound 50 µM): 0.798
- relative viability ([1]; first compound 0.01 µM): 0.399
- relative viability ([1]; first compound 0.03162 µM): 0.351
- relative viability ([1]; first compound 0.1 µM): 0.363
- relative viability ([1]; first compound 0.3162 µM): 0.339
- relative viability ([1]; first compound 1 µM): 0.314
- relative viability ([2]; first compound 0.01 µM): 0.658
- relative viability ([2]; first compound 0.03162 µM): 0.72
- relative viability ([2]; first compound 0.1 µM): 0.678
- relative viability ([2]; first compound 0.3162 µM): 0.649
- relative viability ([2]; first compound 1 µM): 0.702

Cell Line: SW 1573
- relative viability (BAM7 + Trametinib; first compound 0.5 µM): 0.633
- relative viability (BAM7 + Trametinib; first compound 5 µM): 0.592
- relative viability (BAM7 + Trametinib; first compound 15.81 µM): 0.541
- relative viability (BAM7 + Trametinib; first compound 50 µM): 0.528
- relative viability (BAM7 + Luminespib; first compound 0.5 µM): 0.356
- relative viability (BAM7 + Luminespib; first compound 5 µM): 0.168
- relative viability (BAM7 + Luminespib; first compound 15.81 µM): 0.417
- relative viability (BAM7 + Luminespib; first compound 50 µM): 0.229
- relative viability ([1]; first compound 0.01 µM): 0.432
- relative viability ([1]; first compound 0.03162 µM): 0.395
- relative viability ([1]; first compound 0.1 µM): 0.453
- relative viability ([1]; first compound 0.3162 µM): 0.447
- relative viability ([1]; first compound 1 µM): 0.365
- relative viability ([2]; first compound 0.01 µM): 0.553
- relative viability ([2]; first compound 0.03162 µM): 0.39
- relative viability ([2]; first compound 0.1 µM): 0.477
- relative viability ([2]; first compound 0.3162 µM): 0.399
- relative viability ([2]; first compound 1 µM): 0.364
